Assay results from ChEMBL document CHEMBL1128765, “Growth inhibitory effect of naphthofuran and naphthofuranquinone derivatives on Trypanosoma cruzi epimastigotes” (Bioorg Med Chem Lett, 1995).

These compounds were tested on Trypanosoma cruzi (assay: Percent inhibition of growth against Trypanosoma cruzi epimastigotes, Y strain at concentration 4 ug/ml (13-17 uM)). Details: read-out: GI.
Assay type: functional

| Structure (SMILES) | inhibition of growth at 4 µg/mL [%] |
| --- | --- |
| COc1ccc2c(c1)C(=O)c1cc(C(C)O)oc1C2=O (configuration not stated) | 100 |
| COc1ccc2c(c1OC)C(=O)c1occc1C2=O | 25 |
| COc1ccc2c(c1)C(=O)c1oc(C(C)=O)cc1C2=O | 100 |
| COc1ccc(C(=O)O)c(Cc2ccco2)c1 | 0 |
| COc1ccc2c(OC(C)=O)c3cc(C(C)=O)oc3cc2c1 | 100 |
| COc1ccc2c(c1OC)C(=O)c1oc(C(C)O)cc1C2=O (configuration not stated) | 22 |
| COc1ccc2c(c1)C(c1ccc(C(C)=O)o1)OC2=O (configuration not stated) | 17 |
| COc1ccc2c(c1)C(c1ccco1)OC2=O (configuration not stated) | 18 |
| O=C1C(=O)c2ccoc2-c2ccccc21 | 100 |
| COc1ccc2c(c1OC)C(=O)c1ccoc1C2=O | 45 |
| COc1ccc2c(c1OC)C(=O)c1oc(C(C)=O)cc1C2=O | 45 |
| COc1cccc2c1C(c1ccco1)OC2=O (configuration not stated) | 19 |
| O=C(Cn1ccnc1[N+](=O)[O-])NCc1ccccc1 [BENZNIDAZOLE] | 100 |
| CC1CS(=O)(=O)CCN1/N=C/c1ccc([N+](=O)[O-])o1 (configuration not stated) [NIFURTIMOX] | 100 |

What follows are compounds tested on Trypanosoma cruzi (assay: In vitro antitrypanosomal activity against Trypanosoma cruzi epimastigote, CL strain). Details: not given.
Assay type: functional, organism-based

| Structure (SMILES) | IC50 [nM] |
| --- | --- |
| COc1ccc2c(c1)C(=O)c1cc(C(C)O)oc1C2=O (configuration not stated) | 2650 |
| COc1ccc2c(c1)C(=O)c1oc(C(C)=O)cc1C2=O | 530 |
| COc1ccc2c(OC(C)=O)c3cc(C(C)=O)oc3cc2c1 | 1860 |
| O=C1C(=O)c2ccoc2-c2ccccc21 | 2550 |
| O=C(Cn1ccnc1[N+](=O)[O-])NCc1ccccc1 [BENZNIDAZOLE] | 8950 |
| CC1CS(=O)(=O)CCN1/N=C/c1ccc([N+](=O)[O-])o1 (configuration not stated) [NIFURTIMOX] | 3810 |

Each compound was assayed on Trypanosoma cruzi (assay: In vitro for antitrypanosomal activity against Trypanosoma cruzi epimastigote, SC-28 strain). Details: not given.
Assay type: functional, organism-based

| Structure (SMILES) | IC50 [nM] |
| --- | --- |
| COc1ccc2c(c1)C(=O)c1cc(C(C)O)oc1C2=O (configuration not stated) | 3050 |
| COc1ccc2c(c1)C(=O)c1oc(C(C)=O)cc1C2=O | 570 |
| COc1ccc2c(OC(C)=O)c3cc(C(C)=O)oc3cc2c1 | 2170 |
| O=C1C(=O)c2ccoc2-c2ccccc21 | 2800 |
| O=C(Cn1ccnc1[N+](=O)[O-])NCc1ccccc1 [BENZNIDAZOLE] | 8970 |
| CC1CS(=O)(=O)CCN1/N=C/c1ccc([N+](=O)[O-])o1 (configuration not stated) [NIFURTIMOX] | 3550 |

What follows are compounds tested on Trypanosoma cruzi (assay: In vitro for antitrypanosomal activity against Trypanosoma cruzi epimastigote, Ystrain). Details: not given.
Assay type: functional, organism-based

| Structure (SMILES) | IC50 [nM] |
| --- | --- |
| COc1ccc2c(c1)C(=O)c1cc(C(C)O)oc1C2=O (configuration not stated) | 2820 |
| COc1ccc2c(c1)C(=O)c1oc(C(C)=O)cc1C2=O | 490 |
| COc1ccc2c(OC(C)=O)c3cc(C(C)=O)oc3cc2c1 | 1920 |
| O=C1C(=O)c2ccoc2-c2ccccc21 | 3020 |
| O=C(Cn1ccnc1[N+](=O)[O-])NCc1ccccc1 [BENZNIDAZOLE] | 8050 |
| CC1CS(=O)(=O)CCN1/N=C/c1ccc([N+](=O)[O-])o1 (configuration not stated) [NIFURTIMOX] | 3290 |
